# Laboratory results: ChEMBL document CHEMBL1143147, “A novel sesquiterpenoid dimer parviflorene F induces apoptosis by up-regulating the expression of TRAIL-R2 and a caspase-dependent mechanism” (Bioorg Med Chem, 2008)
# Active and inactive are the calls of the source. The rule behind the calls is not given here.
# Legend:
# HeLa [1] = assay: Cell viability in human HeLa cells at 4 ug/ml after 24 hrs; assay type: functional
# HeLa [2] = assay: Cell viability in human HeLa cells at 4 ug/ml after 24 hrs in presence of TRAIL; assay type: functional
# HeLa [3] = assay: Induction of apoptosis in human HeLa cells assessed as early apoptotic cells at 4 ug/ml after 12 hrs by annexin V-FITC/PI staining; assay type: functional
# HeLa [4] = assay: Induction of apoptosis in human HeLa cells assessed as accumulation at subG1 phase after 24 hrs by flow cytometry; assay type: functional
# HeLa [5] = assay: Reversal of drug-induced apoptosis in human HeLa cells in presence of caspase 8 inhibitor z-IETD after 12 hrs by Annexin-PI dual staining; assay type: functional
# DLD-1 [6] = assay: Upregulation of TRAIL-R2 protein in human DLD1/TRAIL-R cells at 4 ug/ml by Western blot; assay type: functional, cell-based
# HeLa [7] = assay: Cytotoxicity against human HeLa cells expressed as ratio of Cyr61 gene expression in cells treated with drug at 5 ug/ml over control after 24 hrs; assay type: functional
# HeLa [8] = assay: Induction of apoptosis in human HeLa cells assessed as accumulation at G2/M phase after 6 hrs by flow cytometry; assay type: functional
# HeLa [9] = assay: Induction of apoptosis in human HeLa cells assessed as accumulation at S phase after 6 hrs by flow cytometry; assay type: functional
# HeLa [10] = assay: Induction of apoptosis in human HeLa cells assessed as accumulation at S phase after 24 hrs by flow cytometry; assay type: functional
# HeLa [11] = assay: Reversal of drug-induced apoptosis in human HeLa cells expressing TRAIL-R2/Fc chimera protein after 12 hrs; assay type: functional, cell-based
# DLD-1 [12] = assay: Cytotoxicity against human DLD1/TRAIL-R cells after 24 hrs; assay type: functional, cell-based; settings: DLD-1, 24 h
# HeLa [13] = assay: Induction of apoptosis in human HeLa cells assessed as late apoptotic cells at 4 ug/ml after 24 hrs by annexin V-FITC and PI staining; assay type: functional
# HeLa [14] = assay: Induction of apoptosis in human HeLa cells assessed as cleavage of caspase 8 at 4 ug/ml after 12 hrs by Western blot; assay type: functional, cell-based
# HeLa [15] = assay: Induction of apoptosis in human HeLa cells assessed as early apoptotic cells at 4 ug/ml after 24 hrs by annexin V-FITC/PI staining; assay type: functional
# HeLa [16] = assay: Increase in TRAIL-R2 protein level in human HeLa cells at 8 ug/ml after 24 hrs by Western blot; assay type: functional, cell-based
# HeLa [17] = assay: Induction of apoptosis in human HeLa cells assessed as accumulation at subG1 phase after 6 hrs by flow cytometry; assay type: functional
# HeLa [18] = assay: Induction of apoptosis in human HeLa cells assessed as accumulation at subG1 phase after 12 hrs by flow cytometry; assay type: functional
# HeLa [19] = assay: Induction of apoptosis in human HeLa cells assessed as accumulation at G1 phase after 24 hrs by flow cytometry; assay type: functional
# HeLa [20] = assay: Induction of apoptosis in human HeLa cells assessed as accumulation at S phase after 12 hrs by flow cytometry; assay type: functional
# HeLa [21] = assay: Induction of apoptosis in human HeLa cells assessed as accumulation at G1 phase after 6 hrs by flow cytometry; assay type: functional
# HeLa [22] = assay: Induction of apoptosis in human HeLa cells assessed as accumulation at G2/M phase after 24 hrs by flow cytometry; assay type: functional
# DLD-1 [23] = assay: Cell viability in human DLD1/TRAIL-R cells at 8 ug/ml after 24 hrs; assay type: functional
# HeLa [24] = assay: Induction of apoptosis in human HeLa cells assessed as cleavage of caspase 8 at 4 ug/ml after 6 hrs by Western blot; assay type: functional, cell-based
# HeLa [25] = assay: Cytotoxicity against human HeLa cells after 24 hrs by FMCA; assay type: functional, cell-based
# HeLa [26] = assay: Increase in AF016266 mRNA expression in human HeLa cells by RTPCR; assay type: functional
# HeLa [27] = assay: Induction of apoptosis in human HeLa cells assessed as accumulation at G2/M phase after 12 hrs by flow cytometry; assay type: functional
# HeLa [28] = assay: Induction of apoptosis in human HeLa cells assessed as accumulation at G1 phase after 12 hrs by flow cytometry; assay type: functional
# HeLa [29] = assay: Induction of apoptosis in human HeLa cells assessed as caspase 3 activity at 4 ug/ml; assay type: functional, cell-based; settings: TDE = time-dependent effect
# HeLa [30] = assay: Increase in NM_003607 mRNA expression in human HeLa cells by RTPCR; assay type: functional, cell-based
# DLD-1 [31] = assay: Upregulation of TRAIL-R2 protein in human DLD1/TRAIL-R cells at 8 ug/ml by Western blot; assay type: functional, cell-based
# HeLa [32] = assay: Increase in TRAIL-R2 protein level in human HeLa cells at 4 ug/ml after 24 hrs by Western blot; assay type: functional, cell-based
# DLD-1 [33] = assay: Cell viability in human DLD1/TRAIL-R cells at 8 ug/ml after 24 hrs in presence of TRAIL; assay type: functional
# HeLa [34] = assay: Reversal of drug-induced apoptosis in human HeLa cells ain presence of caspase 9 inhibitor z-LEHD after 12 hrs by Annexin-PI dual staining; assay type: functional
# HeLa [35] = assay: Cytotoxicity against human HeLa cells expressed as ratio of MRCKalpha gene expression in cells treated with drug at 5 ug/ml over control after 24 hrs; assay type: functional
# HeLa [36] = assay: Cytotoxicity against human HeLa cells expressed as ratio of TRAIL-R2 gene expression in cells treated with drug at 5 ug/ml over control after 24 hrs; assay type: functional
# HeLa [37] = assay: Cytotoxicity against human HeLa cells expressed as ratio of RHAMM gene expression in cells treated with drug at 5 ug/ml over control after 24 hrs; assay type: functional
smiles,measurement,setting,value
Cc1cc(O)c2c(c1)[C@H](C(C)C)Cc1cc3c(cc1-2)[C@@H](O)[C@@H](C(C)C)c1cc(C)cc(O)c1-3 [PARVIFLORENE F],Activity,HeLa [1],44%
same,Activity,HeLa [2],16%
same,Activity,HeLa [3],52.7%
same,Activity,HeLa [4],26.1%
same,Activity,HeLa [5],2.2%
same,Activity,DLD-1 [6],Active
same,Ratio,HeLa [7],0.61
same,Activity,HeLa [8],15.6%
same,Activity,HeLa [9],17.3%
same,Activity,HeLa [10],5.5%
same,Activity,HeLa [11],Active
same,IC50,DLD-1 [12],9.2 µg/mL
same,Activity,HeLa [13],22.9%
same,Activity,HeLa [14],inactive
same,Activity,HeLa [15],41.2%
same,Activity,HeLa [16],Active
same,Activity,HeLa [17],10.9%
same,Activity,HeLa [18],31.5%
same,Activity,HeLa [19],52.1%
same,Activity,HeLa [20],10.3%
same,Activity,HeLa [21],56.1%
same,Activity,HeLa [22],15.3%
same,Activity,DLD-1 [23],54%
same,Activity,HeLa [24],Active
same,IC50,HeLa [25],4.3 µg/mL
same,Fold change,HeLa [26],4.9
same,Activity,HeLa [27],16.6%
same,Activity,HeLa [28],41.6%
same,Activity,HeLa [29],tde
same,Activity,HeLa [30],Dose-dependent effect
same,Activity,DLD-1 [31],Active
same,Activity,HeLa [32],Active
same,Activity,DLD-1 [33],20%
same,Activity,HeLa [34],4%
same,Ratio,HeLa [35],1.71
same,Ratio,HeLa [36],1.44
same,Ratio,HeLa [37],0.68
